Measurements taken from ChEMBL document CHEMBL1201862, “PubChem BioAssay data set” (2004).
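Method: 48-hour compound exposure of cells in 96-well plates, five concentrations, linear interpolation of endpoints. GI50 is the concentration that inhibits growth by half.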 The source made the active and inactive calls. Rule as the data show it: active = GI50 up to about 1.1 µM and inactive = higher.

Tests used:
Assay in all cases: DTP human tumour cell line panel, 48 h
T47D = test system: T47D
SNB-19 = test system: SNB-19
M19-MEL = test system: M19-MEL
RPMI-8226 = test system: RPMI-8226
MDA-N = test system: MDA-N
RXF 393 = test system: RXF 393
HL-60 = test system: HL-60
SF-295 = test system: SF-295
MDA-MB-435 = test system: MDA-MB-435
K562 = test system: K562
LXFL 529 = test system: LXFL 529
SK-MEL-2 = test system: SK-MEL-2
HOP-18 = test system: HOP-18
OVCAR-3 = test system: OVCAR-3
DMS-273 = test system: DMS-273
MCF7 = test system: MCF7
Hs-578T = test system: Hs-578T
XF498 = test system: XF498
DLD-1 = test system: DLD-1
DMS-114 = test system: DMS-114
OVCAR-8 = test system: OVCAR-8
HCT-15 = test system: HCT-15
SR = test system: SR
HOP-92 = test system: HOP-92
PC-3 = test system: PC-3
MDA-MB-231 = test system: MDA-MB-231
CAKI-1 = test system: CAKI-1
SNB-78 = test system: SNB-78
KM-20L2 = test system: KM-20L2
NCI/ADR-RES = test system: NCI/ADR-RES
CCRF-CEM = test system: CCRF-CEM
MOLT-4 = test system: MOLT-4
BT-549 = test system: BT-549
DU-145 = test system: DU-145
HOP-62 = test system: HOP-62
OVCAR-4 = test system: OVCAR-4
NCI-H460 = test system: NCI-H460
OVCAR-5 = test system: OVCAR-5
HCC 2998 = test system: HCC 2998
Malme-3M = test system: Malme-3M
NCI-H522 = test system: NCI-H522
UACC-62 = test system: UACC-62
NCI-H23 = test system: NCI-H23
IGROV-1 = test system: IGROV-1
UACC-257 = test system: UACC-257
SN12C = test system: SN12C
NCI-H226 = test system: NCI-H226
A549 = test system: A549
HCT-116 = test system: HCT-116
SNB-75 = test system: SNB-75
SK-MEL-5 = test system: SK-MEL-5

Measured: GI50

COC(=O)C1c2cc3c(c(O)c2C(O)CC1(C)O)C(=O)c1c(O)cc2c(c1C3=O)OC1OC2(C)C(O)C(N(C)C)C1O (centres undefined)
11300 nM: HCT-15
inactive: T47D 1710 nM | SNB-19 7060 nM | M19-MEL > 100000 nM | RPMI-8226 10900 nM | MDA-N 1570 nM | RXF 393 12400 nM | HL-60 12600 nM | SF-295 12400 nM | MDA-MB-435 1750 nM | K562 11300 nM | LXFL 529 > 100000 nM | SK-MEL-2 > 100000 nM | HOP-18 > 100000 nM | OVCAR-3 12700 nM | DMS-273 > 100000 nM | MCF7 1350 nM | Hs-578T 1430 nM | XF498 > 100000 nM | DLD-1 > 100000 nM | DMS-114 > 100000 nM | OVCAR-8 11700 nM | SR 8490 nM | HOP-92 26800 nM | PC-3 1200 nM | MDA-MB-231 1310 nM | CAKI-1 3280 nM | SNB-78 > 100000 nM | KM-20L2 > 100000 nM | NCI/ADR-RES 1640 nM | CCRF-CEM 6370 nM | MOLT-4 6080 nM | BT-549 4900 nM | DU-145 1700 nM | HOP-62 12700 nM | OVCAR-4 12900 nM | NCI-H460 > 100000 nM

O=C1C=C2C(=CCOC2O)O1 (centres undefined) [PATULIN]
active: RPMI-8226 189 nM | DMS-273 881 nM | Malme-3M 1120 nM | XF498 267 nM | DLD-1 456 nM | DMS-114 1080 nM | NCI-H522 365 nM | UACC-62 851 nM | NCI/ADR-RES 733 nM | CCRF-CEM 158 nM | MOLT-4 368 nM | UACC-257 723 nM | SN12C 618 nM | HCT-116 223 nM | SK-MEL-5 1000 nM
inactive: M19-MEL 1290 nM | OVCAR-5 7400 nM | HCC 2998 1150 nM | SK-MEL-2 1370 nM | HOP-18 1980 nM | HOP-92 3080 nM | SNB-78 2320 nM | KM-20L2 2280 nM | NCI-H23 1150 nM | IGROV-1 2100 nM | HOP-62 10600 nM | NCI-H226 3490 nM | A549 4100 nM | OVCAR-4 2840 nM | SNB-75 4280 nM | NCI-H460 1160 nM
668 nM: HCT-15
